Results published in patent publication US9777008B2, “PRMT5 inhibitors and uses thereof” (Epizyme, Inc., priority 2012, dated 2017).
pIC50: −log10 of the molar value.

molecular target: PRMT5/MEP50 (Homo sapiens (Human), UniProt O14744); assay: PRMT5 Biochemical Assay (PRMT5/MEP50 enzyme assay on peptide substrate, 3H-SAM Flashplate)
Text: S-adenosylmethionine (SAM), S-adenosylhomocysteine (SAH), bicine, KCl, Tween20, dimethylsulfoxide (DMSO), bovine skin gelatin (BSG), and Tris(2-carboxyethyl)phosphine hydrochloride solution (TCEP) were purchased from Sigma-Aldrich at the highest level of purity possible. ^3H-SAM was purchase from American Radiolabeled Chemicals with a specific activity of 80 Ci/mmol. 384-well streptavidin Flashplates were purchased from PerkinElmer.
Peptide representative of human histone H4 residues 1-15 was synthesized with a C-terminal linker-affinity tag motif and a C-terminal amide cap by 21st Century Biochemicals. The peptide was high high-performance liquid chromatography (HPLC) purified to greater than 95% purity and confirmed by liquid chromatography mass spectrometry (LC-MS). The sequence was Ac-[…][K-Biot]-amide (SEQ ID NO.:3).
Molecular Biology: Full-length human PRMT5 (NM_006109.3) transcript variant 1 clone was amplified from a fetal brain cDNA library, incorporating flanking 5′ sequence encoding a FLAG tag ([…]) (SEQ ID NO.:4) fused directly to Ala 2 of PRMT5. Full-length human MEP50 (NM_024102) clone was amplified from a human testis cDNA library incorporating a 5′ sequence encoding a 6-histidine tag (MHHHHHH) (SEQ ID NO.:5) fused directly to Arg 2 of MEP50. The amplified genes were sublconed into pENTR/D/TEV (Life Technologies) and subsequently transferred by Gateway™ attL×attR recombination to pDEST8 baculvirus expression vector (Life Technologies).
Recombinant baculovirus and Baculovirus-Infected Insect Cells (BIIC) were generated according to Bac-to-Bac kit instructions (Life Technologies) and Wasilko, 2006, respectively. Protein over-expression was accomplished by infecting exponentially growing Spodoptera frugiperda (SF9) cell culture at 1.2×10^6 cell/ml with a 5000 fold dilution of BIIC stock. Infections were carried out at 27° C. for 72 hours, harvested by centrifugation, and stored at −80° C. for purification.
Flag-PRMT5/6His-MeP50 was eluted with 300 mM Imidazole in the same buffer. The purity of recovered protein was 87%. Reference: Wasilko, D. J. and S. E. Lee: “TIPS: titerless infected-cells preservation and scale-up” Bioprocess J., 5 (2006), pp. 29-32.
General Procedure for PRMT5/MEP50 Enzyme Assays on Peptide Substrates.
The assays were all performed in a buffer consisting of 20 mM Bicine (pH=7.6), 1 mM TCEP, 0.005% BSG, and 0.002% Tween20, prepared on the day of use. Compounds in 100% DMSO (1 ul) were spotted into a polypropylene 384-well V-bottom plates (Greiner) using a Platemate Plus outfitted with a 384-channel head (Thermo Scientific). DMSO (1 ul) was added to Columns 11, 12, 23, 24, rows A-H for the maximum signal control and 1 ul of SAH, a known product and inhibitor of PRMT5/MEP50, was added to columns 11, 12, 23, 24, rows I-P for the minimum signal control. A cocktail (40 ul) containing the PRMT5/MEP50 enzyme and the peptide was added by Multidrop Combi (Thermo-Fisher). The compounds were allowed to incubate with PRMT5/MEP50 for 30 min at 25 degrees Celsius, then a cocktail (10 ul) containing ^3H-SAM was added to initiate the reaction (final volume=51 ul). The final concentrations of the components were as follows: PRMT5/MEP50 was 4 nM, ^3H-SAM was 75 nM, peptide was 40 nM, SAH in the minimum signal control wells was 100 uM, and the DMSO concentration was 1%. The assays were stopped by the addition of non-radioactive SAM (10 ul) to a final concentration of 600 uM, which dilutes the ^3H-SAM to a level where its incorporation into the peptide substrate is no longer detectable. 50 ul of the reaction in the 384-well polypropylene plate was then transferred to a 384-well Flashplate and the biotinylated peptides were allowed to bind to the streptavidin surface for at least 1 hour before being washed three times with 0.1% Tween20 in a Biotek ELx405 plate washer. […]

Chain of PRMT5/MEP50 (O14744 other isoform, or with tags, fused parts or gaps): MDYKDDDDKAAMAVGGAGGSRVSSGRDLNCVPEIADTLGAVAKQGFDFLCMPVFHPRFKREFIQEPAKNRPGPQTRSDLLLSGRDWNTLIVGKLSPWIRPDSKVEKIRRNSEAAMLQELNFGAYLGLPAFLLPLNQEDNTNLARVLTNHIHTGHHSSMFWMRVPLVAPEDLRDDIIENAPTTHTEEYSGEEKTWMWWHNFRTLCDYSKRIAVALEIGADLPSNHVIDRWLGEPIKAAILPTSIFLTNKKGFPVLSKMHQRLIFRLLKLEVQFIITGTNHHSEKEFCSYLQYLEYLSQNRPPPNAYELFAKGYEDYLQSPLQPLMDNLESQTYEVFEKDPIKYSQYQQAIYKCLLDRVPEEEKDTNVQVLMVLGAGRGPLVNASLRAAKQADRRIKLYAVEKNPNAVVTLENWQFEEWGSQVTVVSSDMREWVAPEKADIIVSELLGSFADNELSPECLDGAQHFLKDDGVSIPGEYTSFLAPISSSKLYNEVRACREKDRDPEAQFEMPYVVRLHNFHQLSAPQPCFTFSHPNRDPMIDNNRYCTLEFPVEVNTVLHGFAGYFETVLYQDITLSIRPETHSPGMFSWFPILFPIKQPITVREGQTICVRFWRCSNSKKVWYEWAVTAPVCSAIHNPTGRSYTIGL
Chain of PRMT5/MEP50 (Q9BQA1 other isoform, or with tags, fused parts or gaps partner): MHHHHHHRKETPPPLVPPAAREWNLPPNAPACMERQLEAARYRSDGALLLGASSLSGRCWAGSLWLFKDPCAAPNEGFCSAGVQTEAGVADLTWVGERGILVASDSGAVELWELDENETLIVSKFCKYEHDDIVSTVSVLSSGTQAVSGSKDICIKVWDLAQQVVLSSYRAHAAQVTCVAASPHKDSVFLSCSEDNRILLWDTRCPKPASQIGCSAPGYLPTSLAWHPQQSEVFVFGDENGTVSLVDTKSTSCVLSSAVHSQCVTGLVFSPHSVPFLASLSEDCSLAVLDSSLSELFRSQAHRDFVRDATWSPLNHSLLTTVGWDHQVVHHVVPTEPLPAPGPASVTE

| SMILES | pIC50 |
| --- | --- |
| Cn1cnc2ccc(-c3cccc(OCC(O)CN4CCc5ccccc5C4CC(N)=O)c3)cc21 (stereo not drawn) [Compound 202] | < 4.40 |
| CC1CN(CC(O)COc2cccc(CNC3CCCC3)c2)Cc2ccccc21 (stereo not drawn) [Compound 56] | < 4.40 |
| COc1ccc(Cn2nccc2-c2ccc(OC[C@@H](O)CN3CCc4ccccc4C3)cc2)cc1 [Compound 38] | < 4.40 |
| Cn1cnc2ccc(-c3ccnc(NC[C@@H](O)CN4CCc5ccccc5C4)c3)cc21 [Compound 276] | 6.00 to 7.00 |
| COc1cc2c(cc1OC)CN(CC(O)COc1cccc(CNC3CCCC3)c1)CC2 (stereo not drawn) [Compound 30] | < 4.40 |
| CN1CCCCC1COCC(O)CN1CCc2ccccc2C1 (stereo not drawn) [Compound 289] | < 4.40 |
| CN1CCC(OCC(O)CN2CCc3ccccc3C2)CC1 (stereo not drawn) [Compound 293] | < 4.40 |
| Cn1cnc2ccc(-c3cccc(OCC(O)CN4Cc5ccccc5C(F)(F)C4)c3)cc21 (stereo not drawn) [Compound 277] | < 5.00 |
| Cn1cncc1C(=O)Nc1cccc(OC[C@H](O)CN2CCc3ccccc3C2)c1 [Compound 259] | 6.00 to 7.00 |
| COc1cc2c(cc1OC)CN(CC(O)COc1cccc(-c3ccc4ncn(C)c4c3)c1)CC2 (stereo not drawn) [Compound 146] | < 4.40 |
| O[C@@H](COc1cccc(CNC2CCCC2)c1)CN1CCc2ccccc2C1 [Compound 23] | 5.00 to 6.00 |
| COc1ccc(Cn2ccc(-c3ccc(OC[C@H](O)CN4CCc5ccccc5C4)cc3)n2)cc1 [Compound 41] | 5.00 to 6.00 |
| CCn1ccnc1COCC(O)CN1CCc2ccccc2C1 (stereo not drawn) [Compound 295] | < 4.40 |
| Cn1cnc2ccc(-c3cccc(OCC(O)CN4CCc5ccccc5C4=O)c3)cc21 (stereo not drawn) [Compound 225] | < 4.40 |
| OC(COc1cccc(-c2ccc3ncsc3c2)c1)CN1CCc2ccccc2C1 (stereo not drawn) [Compound 123, 1-(3-(benzo[d]thiazol-6-yl)phenoxy)-3-(3,4-dihydroisoquinolin-2(1H)-yl)propan-2-ol] | 6.00 to 7.00 |
| OC(CNc1cc(-c2ccc3ncn(C4CCNCC4)c3c2)ccn1)CN1CCc2ccccc2C1 (stereo not drawn) [Compound 241] | > 7.00 |
| OC(CNc1cc(-c2ncc3ccn(C4CNC4)c3n2)ccn1)CN1CCc2ccccc2C1 (stereo not drawn) [Compound 254] | > 7.00 |
| Cn1cnc2ccc(-c3cccc(OCC(O)CN4CCc5ccccc5C4Cc4ccccc4)c3)cc21 (stereo not drawn) [Compound 143] | < 4.40 |
| COc1ccc(Cn2nccc2-c2ccc(OC[C@H](O)CN3CCc4ccccc4C3)cc2)cc1 [Compound 37] | 5.00 to 6.00 |
| OC(COC1CCNCC1)CN1CCc2ccccc2C1 (stereo not drawn) [Compound 298] | < 4.40 |
| Cn1cnc2ccc(-c3cccc(OCC(O)CN4CCc5ccccc5C4)c3)cc21 (stereo not drawn) [Compound 45, 1-(3,4-dihydroisoquinolin-2(1H)-yl)-3-(3-(1-methyl-1H-benzo[d]imidazol-6-yl)phenoxy)propan-2-ol] | > 7.00 |
| CC1Cc2ccccc2CN1CC(O)COc1cccc(CNC2CCCC2)c1 (stereo not drawn) [Compound 51] | < 4.40 |
| CN1CCC(n2cnc3ccc(-c4cccc(OCC(O)CN5CCc6ccccc6C5)c4)cc32)CC1 (stereo not drawn) [Compound 221] | > 7.00 |
| OC(CNc1cc(-c2ccc3ncn(C4CNC4)c3c2)ccn1)CN1CCc2ccccc2C1 (stereo not drawn) [Compound 229] | > 7.00 |
| OC(COC1CCNC1)CN1CCc2ccccc2C1 (stereo not drawn) [Compound 306] | < 4.40 |

The next lines start with the values.

| pIC50 | SMILES |
| --- | --- |
| > 7.00 | CN1CCC(n2cnc3ccc(-c4ccnc(NCC(O)CN5CCc6ccccc6C5)c4)cc32)CC1 (stereo not drawn) [Compound 252] |
| > 7.00 | Cn1cnc2ccc(-c3cccc(OCC(O)CN4CCc5ccccc5C4)c3)nc21 (stereo not drawn) [Compound 189, 1-(3,4-dihydroisoquinolin-2(1H)-yl)-3-(3-(3-methyl-3H-imidazo[4,5-b]pyridin-5-yl)phenoxy)propan-2-ol] |
| > 7.00 | Cc1ncc2ccc(-c3cccc(OCC(O)CN4CCc5ccccc5C4)c3)cn12 (stereo not drawn) [Compound 266, 1-(3,4-dihydroisoquinolin-2(1H)-yl)-3-(3-(3-methylimidazo[1,5-a]pyridin-6-yl)phenoxy)propan-2-ol] |
| > 7.00 | CN1CCC(n2cnc3ccc(-c4cccc(OCC(O)CN5CCc6ccccc6C5)c4)cc32)C1 (stereo not drawn) [Compound 219] |
| > 7.00 | Cn1ccc2ccc(-c3cccc(OCC(O)CN4CCc5ccccc5C4)c3)nc21 (stereo not drawn) [Compound 176, 1-(3,4-dihydroisoquinolin-2(1H)-yl)-3-(3-(1-methyl-1H-pyrrolo[2,3-b]pyridin-6-yl)phenoxy)propan-2-ol] |
| > 7.00 | Cn1cnc2ccc(-c3ccnc(NCC(O)CN4CCc5ccccc5C4)c3)nc21 (stereo not drawn) [Compound 238, 1-(3,4-dihydroisoquinolin-2(1H)-yl)-3-((4-(3-methyl-3H-imidazo[4,5-b]pyridin-5-yl)pyridin-2-yl)amino)propan-2-ol] |
| > 7.00 | OC(CNc1cc(-c2ncc3ccn(C4CCNCC4)c3n2)ccn1)CN1CCc2ccccc2C1 (stereo not drawn) [Compound 255] |
| > 7.00 | OC(COc1ccc(C2CCCNC2)cc1)CN1CCc2ccccc2C1 (stereo not drawn) [Compound 47] |
| > 7.00 | OC(COc1cccc(-c2ccc3ncn(C4CCNC4)c3c2)c1)CN1CCc2ccccc2C1 (stereo not drawn) [Compound 209, 1-(3,4-dihydroisoquinolin-2(1H)-yl)-3-(3-(1-(pyrrolidin-3-yl)-1H-benzo[d]imidazol-6-yl)phenoxy)propan-2-ol] |
| > 7.00 | CNC(=O)Cn1ccc2cnc(-c3ccnc(NCC(O)CN4CCc5ccccc5C4)c3)nc21 (stereo not drawn) [Compound 245] |
| > 7.00 | CN1CCC(n2cnc3ccc(-c4ccnc(NCC(O)CN5CCc6ccccc6C5)c4)cc32)C1 (stereo not drawn) [Compound 250] |
| > 7.00 | Cn1cnc2ccc(-c3cncc(NCC(O)CN4CCc5ccccc5C4)c3)cc21 (stereo not drawn) [Compound 199] |
| > 7.00 | O=C(Cn1ccc2cnc(-c3ccnc(NCC(O)CN4CCc5ccccc5C4)c3)nc21)N1CCOCC1 (stereo not drawn) [Compound 234, 2-(2-(2-((3-(3,4-dihydroisoquinolin-2(1H)-yl)-2-hydroxypropyl)amino)pyridin-4-yl)-7H-pyrrolo[2,3-d]pyrimidin-7-yl)-1-morpholinoethanone] |
| > 7.00 | OC(COc1cccc(-c2ccc3ncn(Cc4ccccc4)c3c2)c1)CN1CCc2ccccc2C1 (stereo not drawn) [Compound 105, 1-(3-(1-benzyl-1H-benzo[d]imidazol-6-yl)phenoxy)-3-(3,4-dihydroisoquinolin-2(1H)-yl)propan-2-ol] |
| > 7.00 | OC(CNc1cc(-c2ccc3ncn(C4CCNC4)c3c2)ccn1)CN1CCc2ccccc2C1 (stereo not drawn) [Compound 240] |
| > 7.00 | Cn1ncc2ccc(-c3cccc(OCC(O)CN4CCc5ccccc5C4)c3)cc21 (stereo not drawn) [Compound 106] |
| > 7.00 | OC(COc1cccc(-c2cccc3[nH]cnc23)c1)CN1CCc2ccccc2C1 (stereo not drawn) [Compound 223, 1-(3-(1H-benzo[d]imidazol-4-yl)phenoxy)-3-(3,4-dihydroisoquinolin-2(1H)-yl)propan-2-ol] |
| > 7.00 | Cn1ccc2cnc(-c3ccnc(NCC(O)CN4CCc5ccccc5C4)c3)nc21 (stereo not drawn) [Compound 239, 1-(3,4-dihydroisoquinolin-2(1H)-yl)-3-((4-(7-methyl-7H-pyrrolo[2,3-d]pyrimidin-2-yl)pyridin-2-yl)amino)propan-2-ol] |
| > 7.00 | OC(CNc1cc(-c2ccc3ncn(C4COC4)c3c2)ccn1)CN1CCc2ccccc2C1 (stereo not drawn) [Compound 265] |
| > 7.00 | CN1CCN(C(=O)Cn2ccc3cnc(-c4ccnc(NCC(O)CN5CCc6ccccc6C5)c4)nc32)CC1 (stereo not drawn) [Compound 247] |
| > 7.00 | Cn1ncc2cc(-c3cccc(OCC(O)CN4CCc5ccccc5C4)c3)ccc21 (stereo not drawn) [Compound 108] |
| > 7.00 | OC(COc1cccc(-c2ccc3ncn(C4COC4)c3c2)c1)CN1CCc2ccccc2C1 (stereo not drawn) [Compound 269] |
| > 7.00 | Cn1cc2ccc(-c3ccnc(NCC(O)CN4CCc5ccccc5C4)c3)cc2n1 (stereo not drawn) [Compound 236] |
